Like-named read-outs stand apart in the source and are kept apart here.
Key:
[1] = Stability of analytes in rat plasma under storage conditions; type: physicochemical; conditions: n = 6; for Stability RE, 3 freeze-thaw cycles / Stability RE, 30 days at −20 °C: rat plasma; for Stability RE, processed samples' stability: room temperature 24 h
Procedure: The stabilities of analytes in plasma were assessed by analyzing the QC samples at three concentration levels under the following storage conditions: after three freeze (−20 °C)-thaw (room temperature) cycles; stored at −20 °C for 30 days, and comparing the results with those of freshly prepared QC samples. Stabilities of the processed samples at room temperature for 24 h were also assessed.

[2] = cited from earlier work
[3] = cited from earlier work; remark: listed apart in the source
P-gp = conditions: cited from earlier work
[4] = cited from earlier work; remark: listed apart in the source
[5] = jejunum vs ileum and colon; cited from earlier work
[6] = PK study of the 12 alkaloids in rat plasma after oral administration of ZJ and FZJ extract (LC–MS/MS); type: in vivo
Procedure: The time schedule included 15 time-points and six rats were sampled at each time-point. All the rats were orally administered with ZJ extract (suspended in water) at a dose of 3.38 g/kg body weight (dosages of the 12 alkaloids were shown in Table S4), equivalent to crude drug dose of 12 g/kg body weight. Blood samples were collected from the suborbital vein of the rats at 10, 20, 30, 60, 90, 120, 180, 240, 300, 330, 360, 480, 720, 1440, 2160 min after administration, and centrifuged immediately at 5000 rpm for 10 min. The plasma samples were stored at −20 °C until analysis.
Similarly, the time schedule of other rats included 15 time-points and six rats were orally administered with FZJ extract at a dose of 3.76 g/kg body weight (also equivalent to crude drug dose of 12 g/kg body weight, Table S4). Blood samples were collected and treated as mentioned above in the PK study of ZJ extract.
PK parameters of the 12 alkaloids including AUC0→t, AUC0→∞, mean retention time (MRT0→t, MRT0→∞), and elimination half-life (t1/2) were calculated with non-compartmental method by DAS 2.0 software (Mathematical Pharmacology Professional Committee of China, Shanghai, China). Maximum plasma drug concentration (Cmax) and time to reach the maximum plasma drug concentration (Tmax) were observed directly from the detected C–T data. The results were expressed as arithmetic mean ± standard deviation (SD).

**Q.** With `COc1ccc2cc3[n+](cc2c1OC)CCc1cc2c(cc1-3)OCO2` [berberine] as the compound, how does the “Stability RE, 3 freeze-thaw cycles” value ([1]; high QC concentration) read?
**A.** −14.86%

**Q.** And the “Stability RE, 30 days at −20 °C” value ([1]; high QC concentration)?
**A.** −14.65%

**Q.** What about the “Stability RE, 3 freeze-thaw cycles” value ([1]; low QC concentration) of the same compound?
**A.** 7.87%

**Q.** What about the “Stability RE, 30 days at −20 °C” value ([1]; low QC concentration) of the same compound?
**A.** −8.36%

**Q.** What about the “Stability RE, 3 freeze-thaw cycles” value ([1]; medium QC concentration) of the same compound?
**A.** −1.36%

**Q.** And the “Stability RE, 30 days at −20 °C” value ([1]; medium QC concentration)?
**A.** −13.68%

**Q.** What about the “Stability RE, processed samples' stability” value ([1]; high QC concentration) of the same compound?
**A.** −13.71%

**Q.** What about the “Stability RE, processed samples' stability” value ([1]; low QC concentration) of the same compound?
**A.** 9.52%

**Q.** What about the “Stability RE, processed samples' stability” value ([1]; medium QC concentration) of the same compound?
**A.** 4.57%

**Q.** And the “primary elimination route in vivo” value [2]?
**A.** renal excretion

**Q.** What about the “berberine existed as prototype” value ([3]; 0–36 h after intragastric administration) of the same compound?
**A.** at least 56%

**Q.** And the “berberine remained in the GI tract” value ([3]; at 36 h after intragastric administration)?
**A.** 24%

**Q.** And the P-gp substrate (P-gp; not told)?
**A.** P-gp substrates

**Q.** What about the absolute bioavailability [4] of the same compound?
**A.** less than 1%

**Q.** What about the “absorption rate constant (Ka) compared between intestinal sites” value [5] of the same compound?
**A.** greater than that at ileum and colon

**Q.** What about the AUC(0-t) ([6]; 3.38 g/kg, rat plasma, oral ZJ extract, mean ± SD, n = 6, read-out: AUC0→t) of the same compound?
**A.** 277 ± 50.1 ng·h/mL

**Q.** And the AUC(0-inf) ([6]; 3.38 g/kg, rat plasma, oral ZJ extract, mean ± SD, n = 6, read-out: AUC0→∞)?
**A.** 300 ± 55.3 ng·h/mL

**Q.** What about the Cmax ([6]; 3.38 g/kg, rat plasma, oral ZJ extract, mean ± SD, n = 6, read-out: Cmax) of the same compound?
**A.** 109 ± 48.3 ng/mL

**Q.** And the MRT last ([6]; 3.38 g/kg, rat plasma, oral ZJ extract, mean ± SD, n = 6, read-out: MRT0→t (converted))?
**A.** 6.46 h

**Q.** And the MRT inf ([6]; 3.38 g/kg, rat plasma, oral ZJ extract, mean ± SD, n = 6, read-out: MRT0→∞ (converted))?
**A.** 8.58 h

**Q.** What about the half-life ([6]; 3.38 g/kg, rat plasma, oral ZJ extract, mean ± SD, n = 6, read-out: t1/2) of the same compound?
**A.** 378 ± 195 min

**Q.** What about the Tmax ([6]; 3.38 g/kg, rat plasma, oral ZJ extract, read-out: Tmax (converted)) of the same compound?
**A.** 1.5 h

**Q.** What about the AUC(0-t) ([6]; 3.76 g/kg, rat plasma, oral FZJ extract, mean ± SD, n = 6, read-out: AUC0→t) of the same compound?
**A.** 48.1 ± 9.6 ng·h/mL

**Q.** What about the AUC(0-inf) ([6]; 3.76 g/kg, rat plasma, oral FZJ extract, mean ± SD, n = 6, read-out: AUC0→∞) of the same compound?
**A.** 50.2 ± 10.7 ng·h/mL

**Q.** And the Cmax ([6]; 3.76 g/kg, rat plasma, oral FZJ extract, mean ± SD, n = 6, read-out: Cmax)?
**A.** 23.7 ± 7.42 ng/mL

**Q.** And the MRT last ([6]; 3.76 g/kg, rat plasma, oral FZJ extract, mean ± SD, n = 6, read-out: MRT0→t (converted))?
**A.** 4.07 h

**Q.** What about the MRT inf ([6]; 3.76 g/kg, rat plasma, oral FZJ extract, mean ± SD, n = 6, read-out: MRT0→∞ (converted)) of the same compound?
**A.** 4.68 h

**Q.** What about the half-life ([6]; 3.76 g/kg, rat plasma, oral FZJ extract, mean ± SD, n = 6, read-out: t1/2) of the same compound?
**A.** 133 ± 50.1 min

**Q.** And the Tmax ([6]; 3.76 g/kg, rat plasma, oral FZJ extract, read-out: Tmax (converted))?
**A.** 3 h

**Q.** What about the “Tsec (time of the secondary peak in C–T curve)” value (“Tsec” for short) ([6]; rat plasma, oral FZJ extract) of the same compound?
**A.** 30 min

**Q.** And the “Csec (drug concentration of the secondary peak in C–T curve)” value (“Csec” for short) ([6]; rat plasma, oral FZJ extract, mean ± SD, n = 6)?
**A.** 11.64 ± 7.28 ng/mL

**Q.** And the “Tsec” value ([6]; rat plasma, oral ZJ extract)?
**A.** 300 min

**Q.** And the “Csec” value ([6]; rat plasma, oral ZJ extract, mean ± SD, n = 6)?
**A.** 44.68 ± 21.28 ng/mL

**Q.** For `c1c2c(cc3c1OCO3)-c1cc3ccc4c(c3c[n+]1CC2)OCO4` [coptisine], which “Stability RE, 3 freeze-thaw cycles” value ([1]; high QC concentration) is on record?
**A.** 0.97%

**Q.** What about the “Stability RE, 30 days at −20 °C” value ([1]; high QC concentration) of the same compound?
**A.** 0.65%

**Q.** What about the “Stability RE, 3 freeze-thaw cycles” value ([1]; low QC concentration) of the same compound?
**A.** 6.92%

**Q.** And the “Stability RE, 30 days at −20 °C” value ([1]; low QC concentration)?
**A.** −11.58%

**Q.** What about the “Stability RE, 3 freeze-thaw cycles” value ([1]; medium QC concentration) of the same compound?
**A.** 5.77%

**Q.** What about the “Stability RE, 30 days at −20 °C” value ([1]; medium QC concentration) of the same compound?
**A.** −8.99%

**Q.** And the “Stability RE, processed samples' stability” value ([1]; high QC concentration)?
**A.** −8.19%

**Q.** And the “Stability RE, processed samples' stability” value ([1]; low QC concentration)?
**A.** −10.47%

**Q.** And the “Stability RE, processed samples' stability” value ([1]; medium QC concentration)?
**A.** −2.14%

**Q.** What about the P-gp substrate (P-gp) of the same compound?
**A.** P-gp substrates

**Q.** What about the “absorption rate constant (Ka) compared between intestinal sites” value [5] of the same compound?
**A.** better absorption rate at colon compared with jejunum

**Q.** And the “Tsec” value ([6]; rat plasma, oral ZJ extract)?
**A.** 90 min

**Q.** What about the “Csec” value ([6]; rat, in vivo, po) of the same compound?
**A.** 4.96 ± 2.29 ng/mL

**Q.** And the AUC(0-inf) ([6]; rat, in vivo, po, 3.38 g/kg)?
**A.** 71.6 ± 10.7 ng·h/mL

**Q.** And the AUC(0-t) ([6]; rat, in vivo, po, 3.38 g/kg)?
**A.** 68.7 ± 10.8 ng·h/mL

**Q.** What about the Cmax ([6]; rat, in vivo, po, 3.38 g/kg) of the same compound?
**A.** 14.1 ± 7.75 ng/mL

**Q.** What about the MRT inf ([6]; rat, in vivo, po, 3.38 g/kg) of the same compound?
**A.** 12.3 h

**Q.** And the MRT last ([6]; rat, in vivo, po, 3.38 g/kg)?
**A.** 10.7 h

**Q.** What about the Tmax ([6]; rat, in vivo, po, 3.38 g/kg) of the same compound?
**A.** 5 h

**Q.** And the half-life ([6]; rat, in vivo, po, 3.38 g/kg)?
**A.** 480 ± 115 min

**Q.** And the AUC(0-inf) ([6]; rat, in vivo, po, 3.76 g/kg)?
**A.** 11.8 ± 1.25 ng·h/mL

**Q.** And the AUC(0-t) ([6]; rat, in vivo, po, 3.76 g/kg)?
**A.** 11 ± 1.64 ng·h/mL

**Q.** What about the Cmax ([6]; rat, in vivo, po, 3.76 g/kg) of the same compound?
**A.** 4.78 ± 2.31 ng/mL

**Q.** What about the MRT inf ([6]; rat, in vivo, po, 3.76 g/kg) of the same compound?
**A.** 5.2 h

**Q.** And the MRT last ([6]; rat, in vivo, po, 3.76 g/kg)?
**A.** 4.18 h

**Q.** And the Tmax ([6]; rat, in vivo, po, 3.76 g/kg)?
**A.** 3 h

**Q.** And the half-life ([6]; rat, in vivo, po, 3.76 g/kg)?
**A.** 176 ± 73.5 min
